Series [1] is described as follows: in vivo. The conditions noted are these: Sprague Dawley, rat, iv.
Protocol: In the second rat toxicity study, Charles River Study Number 20000328, CoQ10 was administered as short intravenous infusions at the rate of 1.0 mL/min three times a week for four weeks. For the toxicokinetic evaluation, three groups of nine male and nine females received 62.5, 125, and 250 mg/kg CoQ10 IV Formulation (Table 20). On Days 1 and 26, samples were collected from subgroups of three males and three females at 5 and 15 minutes, and at 1, 4, 24 and 48 hr post-dose.
4-Week Repeat-Dose Toxicology Study of CoQ10 IV Formulation In Rats: Four groups of young adult Sprague Dawley rats (n=10/sex/group) received the vehicle (PBS containing Poloxamer 188 and DMPC) or the test article at doses of 0, 62.5, 125 and 250 mg/kg by IV injection three times per week (Charles River Laboratories Study Number 20000328; Table 26). An additional 5 rats/sex were included in each group and were maintained after treatment for a 2-week recovery period. […] The vehicle was administered at the same dose volume as the high-dose group. Additionally, three groups of 9 animals/sex served as toxicokinetic (TK) animals and received the test article in the same manner as the main study groups. […] Blood samples for determination of the plasma concentrations of the test article were collected from cohorts of three TK animals per sex per dose group at 5, 15 and 60 minutes and at 4, 24 and 48 hours after dosing on Days 1 and 28 (after the last dose).
Series [2] in a line: in vivo. The conditions noted are these: beagle, dog, iv.
Protocol: In the second dog toxicity study, Charles River Study Number 20000334, CoQ10 IV Formulation was administered as short intravenous infusions at the rate of 5.0 mL/min three times a week for four weeks.
An additional two dogs/sex were included in each group and maintained for a 2-week recovery after treatment. A single test article concentration of 40 mg/mL was provided for use on the study. […] Parameters evaluated included cageside observations, clinical observations, body weight, food consumption, ophthalmoscopy, electrocardiography, clinical pathology, gross pathology, organ weights, and histopathology. Blood samples for determination of the plasma concentrations of CoQ10 IV Formulation were collected pre-dose and at 5, 15, 30 and 60 minutes and at 2, 4, 8 and 24 hours post-dose on Days 1 and 26.
For the next series, the system named is Caspase 3 in HDFa cells. In words: Western blot for Caspase 3 protein. The class given is cell-based. The conditions noted are these: 24 hours. As for the experimental part:
For the oxygen consumption rate assay, the oxygen consumption rates in the cell lines was determined using the Seahorse apparatus. The caspase 3 activity was determined using a colorimetric method using a commercially available kit according to manufacturer's instructions. The increase in the expression of Caspase 3 as a measure of apoptosis was determined by western blotting analysis using an antibody specific for detection of Caspase 3 protein.
Caspase 3 levels were determined in various cell lines following treatment with the same two CoQ10 N formulations as used above (the first formulation included 4% CoQ10; 3% DMPC; and 93% water, and the second formulation included 4% CoQ10; 3% DMPC; 1.5% Poloxamer P188; and 91.5% water). Specifically, PC-3, HepG2, MCF-7, HDFa and MIAPACA2 cells were treated with the CoQ10 IV formulation and harvested after 24 hours of treatment. The whole cell pellets of these cells were used for Western Blots. Sample volumes equivalent to 10 μg of protein were prepared with Lamelli Loading Dye (LDS) and water and run on a 4-12% Bis-Tris Novel NuPAGE gel on two 10 lane gels (15 μL loaded per lane) as detailed below. […]
In general terms: A western blot detects proteins with antibodies after separation by electrophoresis.

Series [3] is described as follows: Non-GLP four-week toxicity/toxicokinetic study in macaques (Mannheimer Foundation Study 2010-01). The class given is in vivo, sub-adult male macaques. The conditions noted are these: for Tmax: male, macaque, plasma, macaques. An excerpt: Plasma samples for toxicokinetic analysis were collected pre-dose, and at 0.25, 1, 6, 24, and 48 hr postdose on the first day of dosing. Pre-dose, but no post-dose samples were collected on Days 7, 14, 21 and 29. […] The increases for Cmax were slightly greater than directly dose-proportional. The increases for AUC0-t were apparently substantially greater than directly dose-proportional, but the nonlinearity may be in part a reflection of the sampling schedule.

What is called Tmax is the time at which the peak concentration occurs. On to `COC1=C(OC)C(=O)C(C/C=C(\C)CC/C=C(\C)CC/C=C(\C)CC/C=C(\C)CC/C=C(\C)CC/C=C(\C)CC/C=C(\C)CC/C=C(\C)CC/C=C(\C)CCC=C(C)C)=C(C)C1=O` [CoQ10, Coenzyme Q10], for which the AUC0-t in the series “in vivo [1]” (female, 62.5 mg/kg) stood at 2690 µg·h/mL; in “in vivo [1]” (female, 125 mg/kg) it was 5110 µg·h/mL; in “in vivo [1]” (female, 250 mg/kg) it was 15500 µg·h/mL; in the series “in vivo [1]” (male, 62.5 mg/kg) it was 3000 µg·h/mL; in the series “in vivo [1]” (male, 125 mg/kg), 6870 µg·h/mL; in “in vivo [1]” (male, 250 mg/kg) it was 16600 µg·h/mL. In addition, the AUC0-t was 1220 µg·h/mL in the series “in vivo [2]” (female, 31.25 mg/kg); 2920 µg·h/mL in the series “in vivo [2]” (female, 62.5 mg/kg); 12500 µg·h/mL in the series “in vivo [2]” (female, 125 mg/kg); 1130 µg·h/mL in “in vivo [2]” (male, 31.25 mg/kg); 3350 µg·h/mL in the series “in vivo [2]” (male, 62.5 mg/kg); 12800 µg·h/mL in the series “in vivo [2]” (male, 125 mg/kg). Besides, the “intensity of Caspase 3 lower band” value in the series with Caspase 3 in HDFa cells is given as “decreased”. Also, the “Cmax and AUC0-t versus dose” value in series [3] (macaques, 31.25, 62.5, 125 mg/kg IV, preliminary results) is recorded as “increased with increasing dose”. Also, the Tmax is 60 min in series [3] (intravenous, one animal) and 15 min in series [3] (31.25-125 mg/kg IV, first day of dosing).
